Reference: US8178690B2, “Compounds and methods for inhibiting the interaction of BCL proteins with binding partners” (Infinity Pharmaceuticals, Inc., priority 2006, dated 2012)

Assays:
[1] = target: Bcl-2 (Homo sapiens, UniProt P10415); experiment: Bcl-2 binding affinity analysis (fluorescence polarization binding assay); conditions: read-out: BcI2 (Ki, Bcl-2 binding affinity)
Text: (§1) Bcl-2 and Bcl-xL binding may be determined using a variety of known methods. One such assay is a sensitive and quantitative in vitro binding assay using fluorescence polarization (FP) described by Wang, J.-L.; Zhang, Z-J.; Choksi, S.; Sjam. S.; Lu, Z.; Croce, C. M.; Alnemri, E. S.; Komgold, R.; Huang, Z. Cell permeable Bcl-2 binding peptides: a chemical approach to apoptosis induction in tumor cells. Cancer Res. 2000, 60, 1498-1502).
(§2) Bcl-2 and Bcl-xL binding affinity analysis data is presented below for various compounds of the invention.

[2] = target: Bcl-xL (Homo sapiens, UniProt Q07817); experiment: Bcl-xL binding affinity analysis (fluorescence polarization binding assay); conditions: read-out: BcI-XI (Ki, Bcl-xL binding affinity)
Sequence of Bcl-xL (Q07817 whole entry): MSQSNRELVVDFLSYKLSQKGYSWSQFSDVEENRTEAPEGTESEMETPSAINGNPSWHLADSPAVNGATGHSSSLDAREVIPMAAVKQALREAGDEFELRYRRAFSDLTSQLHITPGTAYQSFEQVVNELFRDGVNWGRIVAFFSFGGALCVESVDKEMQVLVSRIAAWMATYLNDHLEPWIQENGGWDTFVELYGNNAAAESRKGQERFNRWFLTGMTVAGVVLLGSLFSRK
Text: as §1, §2

Sequence of Bcl-2 (P10415 whole entry): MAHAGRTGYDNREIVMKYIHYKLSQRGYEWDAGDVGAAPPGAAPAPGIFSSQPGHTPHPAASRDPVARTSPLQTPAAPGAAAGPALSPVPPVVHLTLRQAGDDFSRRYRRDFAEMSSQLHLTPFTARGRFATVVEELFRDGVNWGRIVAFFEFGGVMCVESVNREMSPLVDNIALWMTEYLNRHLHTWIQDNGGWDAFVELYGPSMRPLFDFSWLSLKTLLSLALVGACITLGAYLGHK

In the case of `COc1c(CN2O[C@@H](CO)[C@@H]([C@H](C)O)[C@H]2C(=O)N[C@H]2C[C@H]3C[C@@H]([C@@H]2C)C3(C)C)cccc1-c1cc(CN)cc(C(=O)N[C@@H](Cc2ccccc2)CN(C)C)c1` [295 amine], the Ki [1] is reported as < 0.001 µM and the Ki [2] is reported as < 1 µM.
For `COc1c(CN2O[C@@H](CO)[C@@H]([C@H](C)O)[C@H]2C(=O)N[C@H]2C[C@H]3C[C@@H]([C@@H]2C)C3(C)C)cccc1-c1cc(C(=O)N[C@H](CN(C)C)CC(C)(C)C)cc(N(C)C)c1` [Compound 1], the Ki [1] was < 0.001 µM and the Ki [2] was < 1 µM.
`COC[C@@H](Cc1ccccc1)NC(=O)c1cc(-c2cccc(CN3O[C@@H](CO)[C@@H]([C@H](C)O)[C@H]3C(=O)N[C@H]3C[C@H]4C[C@@H]([C@@H]3C)C4(C)C)c2OC)cc(N(C)C)c1` [Compound 12] was tested, and the Ki [1] was 0.005 to 0.009 µM and the Ki [2] was 5 to 10 µM.
With `CCOc1c(CN2O[C@@H](CO)[C@@H]([C@H](C)O)[C@H]2C(=O)N[C@H]2C[C@H]3C[C@@H]([C@@H]2C)C3(C)C)cccc1-c1cc(C(=O)N[C@@H](Cc2ccccc2)CN(C)C)cc(N(C)C)c1` [Compound 15] the Ki [1] was < 0.001 µM and the Ki [2] was < 1 µM.
For `CCOc1c(CN2O[C@@H](CO)[C@@H]([C@H](C)O)[C@H]2C(=O)N[C@H]2C[C@H]3C[C@@H]([C@@H]2C)C3(C)C)cccc1-c1cc(C(=O)N[C@H](Cc2ccccc2)CN(C)C)cc(N(C)C)c1` [Compound 23], the Ki [1] was < 0.001 µM and the Ki [2] was < 1 µM.
In the case of `CCOc1c(CN2O[C@@H](CO)[C@@H]([C@H](C)O)[C@H]2C(=O)N[C@H]2C[C@H]3C[C@@H]([C@@H]2C)C3(C)C)cccc1-c1cc(C(=O)N[C@H](CN(C)C)CC(C)(C)C)cc(N(C)C)c1` [Compound 24], the Ki [1] is reported as < 0.001 µM and the Ki [2] is reported as < 1 µM.
With `CCOc1c(CN2O[C@@H](CO)[C@@H]([C@H](C)O)[C@H]2C(=O)N[C@H]2C[C@H]3C[C@@H]([C@@H]2C)C3(C)C)cccc1-c1cc(C(=O)N[C@@H](Cc2cccs2)CN(C)C)cc(N(C)C)c1` [Compound 25] the Ki [1] was < 0.001 µM and the Ki [2] was < 1 µM.
In the case of `C[C@@H]1[C@@H](NC(=O)[C@@H]2[C@H]([C@H](C)O)[C@H](CO)ON2Cc2cccc(-c3cc(C(=O)N[C@@H](Cc4ccccc4)CN(C)C)cc(N(C)C)c3)c2OCC2CC2)C[C@H]2C[C@@H]1C2(C)C` [Compound 26], the Ki [1] is reported as < 0.001 µM and the Ki [2] is reported as < 1 µM.
In the case of `C[C@@H]1[C@@H](NC(=O)[C@@H]2[C@H]([C@H](C)O)[C@H](CO)ON2Cc2cccc(-c3cc(C(=O)N[C@H](CN(C)C)CC(C)(C)C)cc(N(C)C)c3)c2OCC2CC2)C[C@H]2C[C@@H]1C2(C)C` [Compound 33], the Ki [1] is reported as < 0.001 µM and the Ki [2] is reported as < 1 µM.
For `CC(C)C[C@H](CN(C)C)NC(=O)c1cc(-c2cccc(CN3O[C@@H](CO)[C@@H]([C@H](C)O)[C@H]3C(=O)N[C@H]3C[C@H]4C[C@@H]([C@@H]3C)C4(C)C)c2OCC2CC2)cc(N(C)C)c1` [Compound 34], the Ki [1] was < 0.001 µM and the Ki [2] was < 1 µM.
`CCOc1c(CN2O[C@@H](CO)[C@@H]([C@H](C)O)[C@H]2C(=O)N[C@H]2C[C@H]3C[C@@H]([C@@H]2C)C3(C)C)cccc1-c1cc(C(=O)N[C@@H](CC(C)C)CN(C)C)cc(N(C)C)c1` [Compound 35] was tested, and the Ki [1] was < 0.001 µM and the Ki [2] was < 1 µM.
In the case of `COc1c(CN2O[C@@H](CO)[C@@H]([C@H](C)O)[C@H]2C(=O)N[C@H]2C[C@H]3C[C@@H]([C@@H]2C)C3(C)C)cccc1-c1cc(C(=O)N[C@@H](Cc2ccccc2)CN(C)C)cc(N(C)C)c1` [Compound 37], the Ki [1] is reported as < 0.001 µM and the Ki [2] is reported as < 1 µM.
With `C[C@@H]1[C@@H](NC(=O)[C@@H]2[C@H]([C@H](C)O)[C@H](CN)ON2Cc2cccc(-c3cc(C(=O)N[C@@H](Cc4ccccc4)CN(C)C)cc(N(C)C)c3)c2F)C[C@H]2C[C@@H]1C2(C)C` [Compound 38] the Ki [1] was < 0.001 µM and the Ki [2] was > 10 µM.
With `C[C@@H]1[C@@H](NC(=O)[C@@H]2[C@H]([C@H](C)O)[C@H](CN)ON2Cc2cccc(-c3cc(C(=O)NCCN(C)C)cc(N(C)C)c3)c2F)C[C@H]2C[C@@H]1C2(C)C` [Compound 53] the Ki [1] was 0.001 to 0.005 µM and the Ki [2] was > 10 µM.
For `COc1c(CN2O[C@@H](CN)[C@@H]([C@H](C)O)[C@H]2C(=O)N[C@H]2C[C@H]3C[C@@H]([C@@H]2C)C3(C)C)cccc1-c1cc(C(=O)N[C@@H](Cc2ccccc2)CN(C)C)cc(N(C)C)c1` [Compound 54], the Ki [1] was 0.001 to 0.005 µM and the Ki [2] was > 10 µM.
In the case of `CCN1CCC[C@@H]1CNC(=O)c1cc(-c2cccc(CN3O[C@@H](CN)[C@@H]([C@H](C)O)[C@H]3C(=O)N[C@H]3C[C@H]4C[C@@H]([C@@H]3C)C4(C)C)c2OC)cc(N(C)C)c1` [Compound 60], the Ki [1] is reported as < 0.001 µM and the Ki [2] is reported as 1 to 5 µM.
In the case of `COc1c(CN2O[C@@H](CN)[C@@H]([C@H](C)O)[C@H]2C(=O)N[C@H]2C[C@H]3C[C@@H]([C@@H]2C)C3(C)C)cccc1-c1cc(C(=O)N[C@H](CN(C)C)CC(C)(C)C)cc(N(C)C)c1` [Compound 61], the Ki [1] is reported as < 0.001 µM and the Ki [2] is reported as < 1 µM.
For `COc1c(CN2O[C@@H](CN)[C@@H]([C@H](C)O)[C@H]2C(=O)N[C@H]2C[C@H]3C[C@@H]([C@@H]2C)C3(C)C)cccc1-c1cc(C(=O)NCCc2ccccc2)cc(N(C)C)c1` [Compound 62], the Ki [1] was < 0.001 µM and the Ki [2] was 5 to 10 µM.
`COc1c(CN2O[C@@H](CN)[C@@H]([C@H](C)O)[C@H]2C(=O)N[C@H]2C[C@H]3C[C@@H]([C@@H]2C)C3(C)C)cccc1-c1cc(C(=O)NCCN(C)C)cc(N(C)C)c1` [Compound 63] was tested, and the Ki [1] was < 0.001 µM and the Ki [2] was 5 to 10 µM.
`COc1c(CN2O[C@@H](CN)[C@@H]([C@H](C)O)[C@H]2C(=O)N[C@H]2C[C@H]3C[C@@H]([C@@H]2C)C3(C)C)cccc1-c1cc(C(=O)NCCc2ccccn2)cc(N(C)C)c1` [Compound 64] was tested, and the Ki [1] was < 0.001 µM and the Ki [2] was > 10 µM.
With `COC(=O)[C@H](Cc1ccccc1)NC(=O)c1cc(-c2cccc(CN3O[C@@H](CN)[C@@H]([C@H](C)O)[C@H]3C(=O)N[C@H]3C[C@H]4C[C@@H]([C@@H]3C)C4(C)C)c2OC)cc(N(C)C)c1` [Compound 65] the Ki [1] was < 0.001 µM and the Ki [2] was > 10 µM.
For `COc1c(CN2O[C@@H](CN)[C@@H]([C@H](C)O)[C@H]2C(=O)N[C@H]2C[C@H]3C[C@@H]([C@@H]2C)C3(C)C)cccc1-c1cc(C(=O)N(C)OC)cc(N(C)C)c1` [Compound 66], the Ki [1] was < 0.001 µM and the Ki [2] was 5 to 10 µM.
For `COc1c(CN2O[C@@H](CN)[C@@H]([C@H](C)O)[C@H]2C(=O)N[C@H]2C[C@H]3C[C@@H]([C@@H]2C)C3(C)C)cccc1-c1cc(C(=O)N[C@@H](Cc2cscn2)C(=O)N(C)C)cc(N(C)C)c1` [Compound 67], the Ki [1] was < 0.001 µM and the Ki [2] was 5 to 10 µM.
In the case of `COc1c(CN2O[C@@H](CN)[C@@H]([C@H](C)O)[C@H]2C(=O)N[C@H]2C[C@H]3C[C@@H]([C@@H]2C)C3(C)C)cccc1-c1cc(C(=O)N[C@H](CC(C)C)CN(C)C)cc(N(C)C)c1` [Compound 68], the Ki [1] is reported as < 0.001 µM and the Ki [2] is reported as < 1 µM.
`COc1c(CN2O[C@@H](CN)[C@@H]([C@H](C)O)[C@H]2C(=O)N[C@H]2C[C@H]3C[C@@H]([C@@H]2C)C3(C)C)cccc1-c1cc(C(=O)N(C)C)cc(N(C)C)c1` [Compound 69] was tested, and the Ki [1] was 0.005 to 0.009 µM and the Ki [2] was > 10 µM.
With `CNC(=O)c1cc(-c2cccc(CN3O[C@@H](CN)[C@@H]([C@H](C)O)[C@H]3C(=O)N[C@H]3C[C@H]4C[C@@H]([C@@H]3C)C4(C)C)c2OC)cc(N(C)C)c1` [Compound 70] the Ki [1] was 0.001 to 0.005 µM and the Ki [2] was > 10 µM.
`COc1c(CN2O[C@@H](CN)[C@@H]([C@H](C)O)[C@H]2C(=O)N[C@H]2C[C@H]3C[C@@H]([C@@H]2C)C3(C)C)cccc1-c1cc(C(=O)O)cc(N(C)C)c1` [Compound 71] was tested, and the Ki [1] was > 0.009 µM and the Ki [2] was 1 to 5 µM.
For `COc1c(CN2O[C@@H](CN)[C@@H]([C@H](C)O)[C@H]2C(=O)N[C@H]2C[C@H]3C[C@@H]([C@@H]2C)C3(C)C)cccc1-c1cc(C(=O)N[C@@H](CC(C)C)CN(C)C)cc(N(C)C)c1` [Compound 72], the Ki [1] was < 0.001 µM and the Ki [2] was < 1 µM.
`COc1c(CN2O[C@@H](CNC(C)=O)[C@@H]([C@H](C)O)[C@H]2C(=O)N[C@H]2C[C@H]3C[C@@H]([C@@H]2C)C3(C)C)cccc1-c1cc(C(=O)N[C@H](CN(C)C)CC(C)(C)C)cc(N(C)C)c1` [Compound 73] was tested, and the Ki [1] was < 0.001 µM and the Ki [2] was < 1 µM.
For `COc1c(CN2O[C@@H](CNC(=O)C(F)(F)F)[C@@H]([C@H](C)O)[C@H]2C(=O)N[C@H]2C[C@H]3C[C@@H]([C@@H]2C)C3(C)C)cccc1-c1cc(C(=O)NCCc2ccccc2)cc(N(C)C)c1` [Compound 74], the Ki [1] was > 0.009 µM and the Ki [2] was 5 to 10 µM.
`CNC(=O)c1cc(-c2cccc(CN3O[C@@H](CNC(=O)CCC(=O)O)[C@@H]([C@H](C)O)[C@H]3C(=O)N[C@H]3C[C@H]4C[C@@H]([C@@H]3C)C4(C)C)c2OC)cc(N(C)C)c1` [Compound 75] gave a Ki [1] of 0.005 to 0.009 µM and a Ki [2] of 1 to 5 µM.
`COc1c(CN2O[C@@H](CNC(C)=O)[C@@H]([C@H](C)O)[C@H]2C(=O)N[C@H]2C[C@H]3C[C@@H]([C@@H]2C)C3(C)C)cccc1-c1cc(C(=O)NCCc2ccccc2)cc(N(C)C)c1` [Compound 76] was tested, and the Ki [1] was 0.005 to 0.009 µM and the Ki [2] was > 10 µM.
`CNC(=O)c1cc(-c2cccc(CN3O[C@@H](CNC(C)=O)[C@@H]([C@H](C)O)[C@H]3C(=O)N[C@H]3C[C@H]4C[C@@H]([C@@H]3C)C4(C)C)c2OC)cc(N(C)C)c1` [Compound 77] showed a Ki [1] of 0.005 to 0.009 µM and a Ki [2] of 1 to 5 µM.
`CNC(=O)c1cc(-c2cccc(CN3O[C@@H](CNC(=O)CCC(=O)OC)[C@@H]([C@H](C)O)[C@H]3C(=O)N[C@H]3C[C@H]4C[C@@H]([C@@H]3C)C4(C)C)c2OC)cc(N(C)C)c1` [Compound 78] was tested, and the Ki [1] was > 0.009 µM and the Ki [2] was 5 to 10 µM.
`CNC(=O)c1cc(-c2cccc(CN3O[C@@H](CNC(=O)Nc4ccccc4)[C@@H]([C@H](C)O)[C@H]3C(=O)N[C@H]3C[C@H]4C[C@@H]([C@@H]3C)C4(C)C)c2OC)cc(N(C)C)c1` [Compound 79] was tested, and the Ki [1] was > 0.009 µM and the Ki [2] was 5 to 10 µM.
